Patent US9173875B2, “Treatment for nicotine-induced lung disease using peroxisome proliferator-activated receptor gamma agonists” (Los Angeles Biomedical Research Institute at Harbor-UCLA …, priority 2006, dated 2015)

Assays:
WI38 cells [1] = assay: Western blot of lipogenic and myogenic marker proteins in WI38 cells (nicotine with or without lipogenic pathway agonists); type: cell-based, human; conditions: nicotine 1×10^−9, 7 days
Experimental: The human embryonic cell line WI38 was obtained from American Type Culture Collection (Rockville, Md.). Cells were grown in MEM plus 10% FBS at 37° C. in six-well plates, four-well slides, and 60- and 100-mm culture dishes as needed.
Western blotting was performed with modifications of methods described previously (Ayad and Wong (1998) Crit. Care Med 26: 1277-1282). […] Equal amounts of the protein (25 μg) from the supernatant were dissolved in electrophoresis sample buffer and were subjected to SDS-PAGE (4-12% gradient) followed by electrophoretic transfer to a nitrocellulose membrane. Nonspecific binding of antibody was blocked by washing with Tris-buffered saline (TBS) containing 5% milk for 1 h. The blot was then subjected to two brief washes with TBS plus 0.5% Tween 20, incubated in TBS plus 0.1% Tween 20 and the specific primary antibodies (PPAR 1:2,000, Alexis Biochemicals, San Diego, Calif.; -SMA 1:50,000, Sigma; ADRP 1:3,000, a kind gift from Dr. Constantine Londos, National Institute of Diabetes and Digestive and Kidney Diseases) overnight at 4° C. Blots were then washed in TBS plus 0.1% Tween 20 and then incubated for 1 h in secondary antibody, washed, and developed with a chemiluminescent substrate (ECL; Amersham, Arlington Heights, Ill.) following the manufacturer's protocol.

WI38 cells [2] = assay: Reversal of nicotine-induced LIF-to-MYF transdifferentiation in WI38 cells, Western analysis
Experimental: The human embryonic cell line WI38 was obtained from the American Type Culture Collection (Rockville, Md.). Cells were grown in minimum essential medium (MEM) +10% fetal bovine serum at 37° C. in six-well plates, two well slides, and 60-mm and 100-mm culture dishes, as needed. […] Subsequently, the cells were treated with rosiglitazone (RGZ) (1×10^−5 M) (a PPARγ agonist), PTHrP (5×10^−7 M), or DBcAMP (1×10^−5 M) for 7 days, and the expression of PTHrP receptor, PPARγ, ADRP, calponin, and cSMA was determined by Western analysis and immunohistochemistry. Simultaneously, fibroblast function was characterized by measuring their capacity to take up triglycerides. Some experiments were performed in the presence of a specific PPARγ antagonist, GW9662. Medium containing fresh chemicals was added daily, and at the end of the experimental period the cells were processed as needed.
For Western blotting, cells were lysed using an extraction buffer [10 mM tris (hydroxymethyl) aminomethane (Tris, pH 7.5), 0.25 M sucrose, 1 mM EDTA, 5 mM benzamidine, 2 mM phenylmethylsulfonyl fluoride, and 10 (j.tg/ml each of pepstatin A, aprotinin, and leupeptin], and centrifuged at 140 g for 10 min (4° C.). Equal amounts of the protein (25 μg) from the supernatant were dissolved in electrophoresis sample buffer and were subjected to sodium dodecyl sulfate-polyacrylamide (4%-12% gradient) gel electrophoresis (SDS-PAGE) followed by electrophoretic transfer to a nitrocellulose memane. The nonspecific binding of antibody was blocked by washing with Tris-buffered saline (TBS) containing 0.1% Tween 20 (TBST) and 5% milk for 1 h. The blot was then subjected to two brief washes with TBST plus 0.5% Tween 20, incubated in TBST plus 0.1% Tween 20 and the specific primary antibodies (PPARγ 1:2000, Alexis Biochemicals, San Diego, Calif.; cSMA 1:50,000, Sigma, St. Louis, Mo.: ADRP 1:3000) overnight at 4° C. Blots were then washed in TBST plus 0.1% Tween 20 and then incubated for 1 h in secondary antibody, washed, and developed with a chemiluminescent substrate [enhanced chemiluminescence (ECL); Amersham, Arlington Heights, Ill.] following the manufacturer's protocol. The densities of the specific protein bands were quantified using a scanning densitometer (Eagle Eye II still video system, Stratagene, La Jolla, Calif.).

PTHrP receptor = molecular target: T1, PTHrP receptor (Homo sapiens, UniProt Q03431); assay: PTHrP receptor binding assay; conditions: nicotine 1×10^−6 M
T1 construct: 10-12 μg membrane protein; endogenous in cells; host or cells: WI38 human embryonic lung fibroblasts (inferred; the assay text only says membrane protein)
T1 sequence (Q03431 27-593): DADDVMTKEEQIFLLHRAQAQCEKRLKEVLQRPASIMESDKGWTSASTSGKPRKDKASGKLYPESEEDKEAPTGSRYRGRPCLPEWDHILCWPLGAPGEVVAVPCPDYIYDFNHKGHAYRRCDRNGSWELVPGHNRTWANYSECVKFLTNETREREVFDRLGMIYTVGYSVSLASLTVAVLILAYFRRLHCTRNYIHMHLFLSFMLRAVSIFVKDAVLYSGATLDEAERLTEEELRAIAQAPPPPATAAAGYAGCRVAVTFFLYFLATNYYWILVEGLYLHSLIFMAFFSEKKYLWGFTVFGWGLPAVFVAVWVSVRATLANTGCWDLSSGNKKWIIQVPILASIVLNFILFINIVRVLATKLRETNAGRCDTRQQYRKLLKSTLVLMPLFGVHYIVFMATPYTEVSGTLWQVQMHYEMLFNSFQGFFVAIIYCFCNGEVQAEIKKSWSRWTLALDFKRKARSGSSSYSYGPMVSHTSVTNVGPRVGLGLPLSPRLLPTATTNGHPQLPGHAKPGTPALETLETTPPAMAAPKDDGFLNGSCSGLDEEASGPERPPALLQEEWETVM
Experimental: The receptor binding assay was carried out as previously described (Torday and Rehan (2002) Am. J. Physiol. Lung Cell Mol. Physiol. 283: L130-L135; Torday and Rehan (2003) Cell Biochem Biophys 37: 235-246). The assay mixture, in a total volume of 0.1 ml, contained 50 mM Tris.HCl (pH 7.4), 2 mM dithiothreitol, 10 mM EDTA, 10 μg/ml each of protease inhibitors (leupeptin, pepstatin, antipain, and aprotinin), 0.5 mM phenylmethylsulfonyl fluoride, 10 mg/ml BSA, 5 mM MgCl2, […] [1251]-Tyr34-PTHrP-(1-34) (specific activity 1,064 Ci/mmol), 10-12 μg membrane protein, and 1×10-10 to 1×10^−6 M PTHrP-(1-34). Triplicate samples were incubated for 30 min at 30° C. Reactions were stopped by the addition of 0.1 ml of homogenization buffer containing 20 mg/ml of BSA and placed in ice-cold water for 30 min, followed by centrifugation at 15,000 g for 1 min. The supernatant was aspirated, and the pellet was counted for radioactive content with a gamma counter (model 1470; Wallace, Gaithersburg, Md.). Nonspecific binding was determined in the presence of 1 μM nonradioactive PTHrP-(1-34). Specific binding of [^125I]-Tyr34-PTHrP-(1-34) was calculated as total binding minus nonspecific binding and expressed as femtomoles per milligrams of protein. […] The effect of nicotine (1×10^−6 M) on PTHrP receptor binding was examined without and with the nACh receptor antagonists D-tubocurarine, α-bungarotoxin, or mecamylamine (1×10^−9 to 1×10^−6 M).

ATII cells [3] = assay: Western analysis of CCT-α and SP-B in ATII cells after in utero nicotine; type: in vivo, Sprague-Dawley rat
Experimental: Pathogen-free timed (embryonic day 0=day of mating) pregnant Sprague-Dawley rats (200-250 g body wt) were obtained from Charles River (Hollister, Calif.) at embryonic day 3 and allowed to acclimatize until embryonic day 6. […] The fetuses were extracted by cesarean section, and the lungs were snap frozen for later analysis or processed for ATII cell or fibroblast culture. […] Louis, Mo.; 0.25 mg/kg). All studies were approved by the Los Angeles Biomedical Research Institute Institutional Review Board and were conducted in accordance with the National Institutes of Health Guide for the Care and Use of Laboratory Animals. Protein extraction and Western blot analysis for SP-B and choline phosphate cytidylyltransferase-α (CCT-α) were performed using standard methods. […] Chemicon) overnight at 4° C. The antibody for CCT-α (1:2,000 dilution) was a kind gift from Dr. […] (University of Iowa, Iowa City, Iowa). […] The density of the SP-B and CCT-α bands was quantified using a scanning densitometer (Eagle Eye, Stratagene).

WI38 cells [4] = tested on: WI38 cells
Experimental: Lipogenic and myogenic status of cultured WI38 cells was assessed by simultaneous staining for lipid droplets and -SMA. Lipids were stained using oil red 0 staining, and -SMA expression was assessed by using anti-SMA (cat. no. A2547, 1:1,000, mouse monoclonal IgG2, Sigma) primary antibody. […] At the end of the experimental period, slides were fixed in freshly prepared 4% paraformaldehyde. Fixed slides were washed in PBS, blocked with 3% normal goat serum (Jackson Immunoresearch Lab) in PBS for 30 min at room temperature to block nonspecific binding, and then incubated in primary antibody overnight at 4° C. Secondary biotinylated anti-mouse IgG2 was used at 1:200 dilution for 30 min. The slides were then washed 3× with PBS and with double-distilled water 2× and were then incubated with oil red 0 (Sigma) for 15-30 min. Slides were rinsed 3× for 5 min and then mounted and coverslipped with Vestashield mounting medium with 4′,6′-diamidino-2-phenylindole (Vector Laboratories) visualization under a fluorescence microscope.

ATII cells [5] = assay: Phospholipid synthesis ([3H]choline incorporation into saturated phosphatidylcholine) by ATII cells after in utero nicotine; type: in vivo, Sprague-Dawley rat; conditions: nicotine 1 mg/kg in utero; vs control, P<0.05, n=6
Experimental: Incorporation of [methyl-3H]choline chloride (NEN Dupont) into saturated phosphatidylcholine was determined in monolayers of cultured explants and ATII cells. […] After incubation, explants and cells were washed three times with ice-cold PBS. The explants and the scraped cells were thoroughly homogenized, and the cellular lipids were extracted with chloroform-methanol (2:1) (Bligh and Dyer (1959) Can. J. Biochem. Physiol., 37: 911-917). The organic phase was dried under a stream of nitrogen at 60° C., resuspended in 0.5 ml of carbon tetrachloride containing 3.5 mg of osmium tetroxide, and left at room temperature for 15 min. The reaction mixture was redried under nitrogen and resuspended in 70 μl of chloroform-methanol (9:1, vol/vol). The lipid extracts were transferred to silica gel plates (Kodak, Rochester, N.Y.) and developed in a chloroform-methanolwater (65:25:4) solvent system. Pure dipalmitoyl phosphatidylcholine was used as the chromatographic standard. The developed plates were stained with bromothymol blue, blotted, and vacuum dried for 5 min at 90° C. Chromatogram spots corresponding to the migration of saturated phosphatidylcholine were scraped from the plates and counted by liquid scintillation spectrometry. The amounts of [methyl^3H]choline chloride incorporated into saturated phosphatidylcholine were expressed as disintegrations per minute per milligram of protein.

whole lung tissue = conditions: nicotine 2 mg/kg i.p. once daily to dam, e6 to e20
[6] = tested on: fetal alveolar type II (ATII) cells; assay: In vivo ATII cell proliferation assay (PCNA and SP-C double labeling) after in utero nicotine; parameters: species or system Sprague-Dawley rat
[7] = 7d nicotine-only group, 7 days after nicotine 10^−9 M

For `CN1CCCC1c1cccnc1` (stereo not shown) [nicotine], the “change in ADRP protein level” value (WI38 cells [1]) was −20±3%, the “change in PPAR protein level” value (WI38 cells [1]) was −24±2% and the “change in PTHrP receptor protein level” value (WI38 cells [1]) was −31±7%. For the same compound, the “change in α-SMA protein level” value (WI38 cells [1]) was “+100±5%”, the “αSMA expression vs untreated controls” value (WI38 cells [2]; 7 days after stopping nicotine (Example 3)) was “significantly higher” and the “expression of PTHrP receptor, PPARγ and ADRP vs untreated controls” value (WI38 cells [2]; [7]) was “significantly lower”. The “expression of αSMA and calponin vs untreated controls” value (WI38 cells [2]; [7]) was “significantly higher”, the “PTHrP receptor expression vs untreated controls” value (WI38 cells [2]; nicotine 10^−9 M 7 days, then 7 days without nicotine (Example 3)) was “significantly lower” and the “expression of αSMA and calponin” value (WI38 cells [2]; nicotine 7 days, p<0.001 vs control, n=3) was “significant increases”. The “expression of PTHrP receptor, PPARγ and ADRP” value (WI38 cells [2]; nicotine 7 days, vs control, n=3) was “significant decreases”, the “decrease in PTHrP binding to its receptor” value (PTHrP receptor) was 30% and the “steady-state SP-B protein level” value (ATII cells [3]; in utero nicotine, P<0.05, n=3) was “significantly increased”. The CCT-α protein expression (ATII cells [3]; in vivo nicotine exposure) was “significant increase”, the “lipid droplet and α-SMA staining” value (WI38 cells [4]) was “decreased lipid staining and increased -SMA staining” and the “[3H]choline incorporation into saturated phosphatidylcholine” value (ATII cells [5]) was “significantly increased”. For the same compound, the “αSMA mRNA expression in whole lung” value (whole lung tissue) was “significant increase”, the “PTHrP receptor, PPARγ and ADRP mRNA expression in whole lung” value (whole lung tissue; vs controls, p<0.05) was “significant decrease” and the “increase in alveolar type II cell proliferation vs control group” value ([6]; nicotine 1 mg/kg i.p. once daily to dam, e6 to e20) was 2 fold. For the same compound, the “ATII cell proliferation (PCNA and SP-C staining)” value ([6]; nicotine 1 mg/kg in utero, P<0.05, n=4) was “almost twofold increase”.
